Test results taken from PubChem BioAssay AID248 (DTP/NCI, 2004).
Inconclusive results and toxic doses are left out. Rule as the data show it: active = T/C of 150% or more; inactive = T/C below 125%.

Test system: L1210 leukemia ip in BDF1 mice, survival T/C
Experiment: NCI In Vivo Anticancer Drug Screen. Data for tumor model L1210 Leukemia (intraperitoneal) in B6D2F1 (BDF1) mice
Details: endpoint: mean survival time, higher = longer survival
How it was run: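 In this screen, tumor-bearing mice given compound are compared to those given vehicle, and their survival values are reported as a treated-to-control quotient.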

[1] = dose: 12.5 mg/kg/injection, schedule: Q01DX009 (ip), vehicle: saline with Tween-80
[2] = dose: 25.0 mg/kg/injection, schedule: Q01DX009 (ip), vehicle: saline with Tween-80
[3] = dose: 25.0 mg/kg/injection, schedule: Q04DX003 (ip), vehicle: saline
[4] = dose: 50.0 mg/kg/injection, schedule: Q01DX009 (ip), vehicle: saline with Tween-80
[5] = dose: 50.0 mg/kg/injection, schedule: Q01DX009 (ip), vehicle: saline
[6] = dose: 100.0 mg/kg/injection, schedule: Q04DX002 (ip), vehicle: Klucel (hydroxypropylcellulose) (HPC)
[7] = dose: 100.0 mg/kg/injection, schedule: Q04DX003 (ip), vehicle: saline
[8] = dose: 100.0 mg/kg/injection, schedule: Q04DX003 (ip), vehicle: Klucel (hydroxypropylcellulose) (HPC)
[9] = dose: 200.0 mg/kg/injection, schedule: Q04DX003 (ip), vehicle: Klucel (hydroxypropylcellulose) (HPC)
[10] = dose: 400.0 mg/kg/injection, schedule: Q04DX003 (ip), vehicle: Klucel (hydroxypropylcellulose) (HPC)
[11] = dose: 12.5 mg/kg/injection, schedule: Q01DX009 (ip), vehicle: saline

Measured: T/C

CC(CCc1ccccc1)NN (stereo not drawn)
inactive: dose: 3.12 mg/kg/injection, schedule: Q01DX009 (ip), vehicle: saline with Tween-80 98 % of control | dose: 6.25 mg/kg/injection, schedule: Q01DX009 (ip), vehicle: saline with Tween-80 96 % of control | [1] 90 % of control | [2] 96 % of control | [3] 100 % of control | [4] 91 % of control | dose: 50.0 mg/kg/injection, schedule: Q04DX003 (ip), vehicle: saline 100 % of control

CC1(C)CC[C@]2(C(=O)O)CC[C@]3(C)C(=CC[C@@H]4[C@@]5(C)CC[C@H](O)C(C)(C)[C@@H]5CC[C@]43C)[C@@H]2C1
inactive: [5] 94 % of control | dose: 100.0 mg/kg/injection, schedule: Q01DX001 (sc), vehicle: saline 103 % of control | dose: 100.0 mg/kg/injection, schedule: Q01DX009 (ip), vehicle: saline 94 % of control | dose: 100.0 mg/kg/injection, schedule: Q04DX002 (ip), vehicle: saline 97 % of control | dose: 200.0 mg/kg/injection, schedule: Q01DX001 (sc), vehicle: saline 103 % of control | dose: 200.0 mg/kg/injection, schedule: Q01DX009 (ip), vehicle: saline 97 % of control | dose: 200.0 mg/kg/injection, schedule: Q04DX002 (ip), vehicle: saline 97 % of control | dose: 400.0 mg/kg/injection, schedule: Q01DX001 (sc), vehicle: saline 103 % of control | dose: 400.0 mg/kg/injection, schedule: Q04DX002 (ip), vehicle: saline 94 % of control

CCS(=O)(=O)c1ccc2nnnn2n1
inactive: dose: 6.25 mg/kg/injection, schedule: Q04DX003 (ip), vehicle: saline 103 % of control | dose: 12.5 mg/kg/injection, schedule: Q04DX003 (ip), vehicle: saline 100 % of control | [3] 112 % of control

c1ccc(-c2nn(-c3ccccc3)[n+](-c3ccccc3-c3ccccc3)n2)cc1
inactive: dose: 4.0 mg/kg/injection, schedule: Q01DX015 (ip), vehicle: carboxymethylcellulose (CMC) 98 % of control | dose: 8.0 mg/kg/injection, schedule: Q01DX015 (ip), vehicle: carboxymethylcellulose (CMC) 93 % of control | dose: 16.0 mg/kg/injection, schedule: Q01DX015 (ip), vehicle: carboxymethylcellulose (CMC) 94 % of control

CCN1C(=O)CN(CCN2CC(=O)N(c3ccccc3)C2=S)C1=S
inactive: [4] 94 % of control | dose: 100.0 mg/kg/injection, schedule: Q01DX009 (ip), vehicle: saline with Tween-80 102 % of control | dose: 200.0 mg/kg/injection, schedule: Q01DX009 (ip), vehicle: saline with Tween-80 90 % of control

Cc1ccc(-c2ccccc2)cc1C(=O)O
inactive: [6] 94 % of control | dose: 200.0 mg/kg/injection, schedule: Q04DX002 (ip), vehicle: Klucel (hydroxypropylcellulose) (HPC) 90 % of control | dose: 400.0 mg/kg/injection, schedule: Q04DX002 (ip), vehicle: Klucel (hydroxypropylcellulose) (HPC) 101 % of control

CC(=O)Nc1ccc(/C=C/c2cc[n+](C)cc2)cc1
inactive: dose: 100.0 mg/kg/injection, schedule: Q04DX003 (ip), vehicle: saline with Tween-80 97 % of control | dose: 200.0 mg/kg/injection, schedule: Q04DX003 (ip), vehicle: saline with Tween-80 111 % of control | dose: 400.0 mg/kg/injection, schedule: Q04DX003 (ip), vehicle: saline with Tween-80 102 % of control

COc1cc2c(c(Oc3ccc(C)cc3)c1)CN(C)CC2
inactive: [7] 98 % of control

Cc1ccc(S(=O)(=O)N(C)c2ccc(C#N)cc2F)cc1
inactive: [7] 102 % of control | dose: 200.0 mg/kg/injection, schedule: Q04DX003 (ip), vehicle: saline 98 % of control | dose: 400.0 mg/kg/injection, schedule: Q04DX003 (ip), vehicle: saline 102 % of control

O=C(O)c1nc2ccccc2[nH]c1=O
inactive: [8] 88 % of control | [9] 92 % of control | [10] 87 % of control

NC(=O)CCC(NC(=O)OCc1ccccc1)C(=O)NCC(=O)O (stereo not drawn)
inactive: dose: 25.0 mg/kg/injection, schedule: Q04DX002 (ip), vehicle: Klucel (hydroxypropylcellulose) (HPC) 95 % of control | dose: 50.0 mg/kg/injection, schedule: Q04DX002 (ip), vehicle: Klucel (hydroxypropylcellulose) (HPC) 92 % of control | [6] 100 % of control

O=[N+]([O-])c1ccc(Oc2ccc(Br)cc2)cc1
inactive: [8] 104 % of control | [9] 104 % of control | [10] 93 % of control

C[C@]12CC[C@H](O)C[C@@]1(O)CC[C@@H]1[C@@H]2CC[C@]2(C)[C@@H](c3ccc(=O)oc3)CC[C@]12O
inactive: dose: 1.25 mg/kg/injection, schedule: Q01DX009 (ip), vehicle: Klucel (hydroxypropylcellulose) (HPC) 107 % of control | dose: 2.5 mg/kg/injection, schedule: Q01DX009 (ip), vehicle: Klucel (hydroxypropylcellulose) (HPC) 91 % of control | dose: 5.0 mg/kg/injection, schedule: Q01DX009 (ip), vehicle: Klucel (hydroxypropylcellulose) (HPC) 96 % of control | dose: 10.0 mg/kg/injection, schedule: Q01DX009 (ip), vehicle: Klucel (hydroxypropylcellulose) (HPC) 102 % of control | dose: 20.0 mg/kg/injection, schedule: Q01DX009 (ip), vehicle: Klucel (hydroxypropylcellulose) (HPC) 98 % of control | dose: 25.0 mg/kg/injection, schedule: Q01DX009 (ip), vehicle: carboxymethylcellulose (CMC) 106 % of control | dose: 50.0 mg/kg/injection, schedule: Q01DX001 (ip), vehicle: carboxymethylcellulose (CMC) 104 % of control | dose: 50.0 mg/kg/injection, schedule: Q01DX009 (ip), vehicle: carboxymethylcellulose (CMC) 92 % of control | dose: 100.0 mg/kg/injection, schedule: Q01DX001 (ip), vehicle: carboxymethylcellulose (CMC) 109 % of control

Cc1cc(C)cc(C(O)(C(=O)O)c2ccccc2)c1 (stereo not drawn)
inactive: dose: 75.0 mg/kg/injection, schedule: Q01DX001 (ip), vehicle: other 103 % of control | dose: 150.0 mg/kg/injection, schedule: Q01DX001 (ip), vehicle: other 103 % of control | dose: 300.0 mg/kg/injection, schedule: Q01DX001 (ip), vehicle: other 106 % of control

CC1=C(N2CC2)C(=O)c2ccccc2C1=O
inactive: dose: 12.5 mg/kg/injection, schedule: Q04DX003 (ip), vehicle: Klucel (hydroxypropylcellulose) (HPC) 98 % of control | dose: 25.0 mg/kg/injection, schedule: Q04DX003 (ip), vehicle: Klucel (hydroxypropylcellulose) (HPC) 102 % of control | dose: 50.0 mg/kg/injection, schedule: Q04DX003 (ip), vehicle: Klucel (hydroxypropylcellulose) (HPC) 102 % of control | dose: 100.0 mg/kg/injection, schedule: Q01DX001 (ip), vehicle: Klucel (hydroxypropylcellulose) (HPC) 102 % of control | [8] 102 % of control

c1ccc2c(C(CCN3CCOCC3)(CCN3CCOCC3)CNC3=NCCN3)cccc2c1
inactive: [11] 105 % of control | [2] 103 % of control | dose: 25.0 mg/kg/injection, schedule: Q01DX009 (ip), vehicle: saline 109 % of control | [5] 111 % of control

CNC(=S)N/N=C(/C)C(=O)O
inactive: dose: 100.0 mg/kg/injection, schedule: Q01DX009 (ip), vehicle: Klucel (hydroxypropylcellulose) (HPC) 96 % of control | [8] 96 % of control | dose: 200.0 mg/kg/injection, schedule: Q01DX009 (ip), vehicle: Klucel (hydroxypropylcellulose) (HPC) 96 % of control | [9] 91 % of control | dose: 400.0 mg/kg/injection, schedule: Q01DX009 (ip), vehicle: Klucel (hydroxypropylcellulose) (HPC) 102 % of control | [10] 88 % of control

Nc1cc(NCc2ccccc2)nc(=O)[nH]1
inactive: dose: 100.0 mg/kg/injection, schedule: Q01DX001 (ip), vehicle: gum acacia 97 % of control | dose: 200.0 mg/kg/injection, schedule: Q01DX001 (ip), vehicle: gum acacia 95 % of control | dose: 400.0 mg/kg/injection, schedule: Q01DX001 (ip), vehicle: gum acacia 101 % of control

CCCCCCCCc1ccc(NC(N)=S)cc1
inactive: dose: 3.12 mg/kg/injection, schedule: Q01DX009 (ip), vehicle: saline 104 % of control | dose: 6.25 mg/kg/injection, schedule: Q01DX009 (ip), vehicle: saline 107 % of control | [1] 92 % of control | [11] 111 % of control

CC(=O)CCC(=O)NC(C)C
inactive: dose: 100.0 mg/kg/injection, schedule: Q04DX002 (ip), vehicle: saline with Tween-80 102 % of control | dose: 200.0 mg/kg/injection, schedule: Q04DX002 (ip), vehicle: saline with Tween-80 102 % of control | dose: 400.0 mg/kg/injection, schedule: Q04DX002 (ip), vehicle: saline with Tween-80 117 % of control

CCN(CC)Cc1cc(Cl)cc(Cc2cc(Cl)cc(CN(CC)CC)c2O)c1O
inactive: dose: 200.0 mg/kg/injection, schedule: Q04DX003 (ip), vehicle: acetone 109 % of control | dose: 400.0 mg/kg/injection, schedule: Q04DX003 (ip), vehicle: acetone 98 % of control
